The record followed here is US8987192B2, “Potent and selective mediators of cholesterol efflux” (The Regents of the University of California, priority 2006, dated 2015).

“Also recorded” adds a separate entry of the source.

For experiment [1], the system named is Apolipoprotein E knock-out mice. Description: Atherosclerosis in Apolipoprotein E knock-out mice on Western diet, pooled series (Example 19). It is filed as in vivo, mouse. The procedure: The polypeptide of SEQ ID NO:4 and its Y26 analog have been evaluated with respect to ability to inhibit atherosclerosis in Apolipoprotein E knock-out mice. The mice were given Western diet for 18 weeks and then randomized to receive saline, free polypeptide or polypeptide-phospholipid complex. […] The degree of atherosclerosis was then determined in whole aorta and aortic root/sinus. Three experimental series were performed. […] The results are equal to or better than previously have been obtained with IV infusions of 40 mg/kg Apolipoprotein A-I Milano/phospholipids complex into Apo E knock-out mice (Shah et al., Circ., 97:780-5, 1998).
As noted above, data from three experimental series were pooled. Pooling of data is justified as only minor changes in the procedures were made (21 injections at 30 mg/kg over 42 and 21 days, respectively), and the diet regimens and sources of mice and polypeptide, respectively, were the same. In the first experiment S26 was substituted for Y26.

The target of experiment [2] is ABCA1 (Mus musculus, UniProt P41233). Put plainly: Cholesterol efflux from [3H]cholesterol-labeled ABCA1-expressing J774 mouse macrophages. It is filed as cell-based. More on the design: to upregulate cellular ABCA1 protein; endogenous in cells; host or cells: J774 mouse macrophages.
Sequence of ABCA1 (P41233 whole entry): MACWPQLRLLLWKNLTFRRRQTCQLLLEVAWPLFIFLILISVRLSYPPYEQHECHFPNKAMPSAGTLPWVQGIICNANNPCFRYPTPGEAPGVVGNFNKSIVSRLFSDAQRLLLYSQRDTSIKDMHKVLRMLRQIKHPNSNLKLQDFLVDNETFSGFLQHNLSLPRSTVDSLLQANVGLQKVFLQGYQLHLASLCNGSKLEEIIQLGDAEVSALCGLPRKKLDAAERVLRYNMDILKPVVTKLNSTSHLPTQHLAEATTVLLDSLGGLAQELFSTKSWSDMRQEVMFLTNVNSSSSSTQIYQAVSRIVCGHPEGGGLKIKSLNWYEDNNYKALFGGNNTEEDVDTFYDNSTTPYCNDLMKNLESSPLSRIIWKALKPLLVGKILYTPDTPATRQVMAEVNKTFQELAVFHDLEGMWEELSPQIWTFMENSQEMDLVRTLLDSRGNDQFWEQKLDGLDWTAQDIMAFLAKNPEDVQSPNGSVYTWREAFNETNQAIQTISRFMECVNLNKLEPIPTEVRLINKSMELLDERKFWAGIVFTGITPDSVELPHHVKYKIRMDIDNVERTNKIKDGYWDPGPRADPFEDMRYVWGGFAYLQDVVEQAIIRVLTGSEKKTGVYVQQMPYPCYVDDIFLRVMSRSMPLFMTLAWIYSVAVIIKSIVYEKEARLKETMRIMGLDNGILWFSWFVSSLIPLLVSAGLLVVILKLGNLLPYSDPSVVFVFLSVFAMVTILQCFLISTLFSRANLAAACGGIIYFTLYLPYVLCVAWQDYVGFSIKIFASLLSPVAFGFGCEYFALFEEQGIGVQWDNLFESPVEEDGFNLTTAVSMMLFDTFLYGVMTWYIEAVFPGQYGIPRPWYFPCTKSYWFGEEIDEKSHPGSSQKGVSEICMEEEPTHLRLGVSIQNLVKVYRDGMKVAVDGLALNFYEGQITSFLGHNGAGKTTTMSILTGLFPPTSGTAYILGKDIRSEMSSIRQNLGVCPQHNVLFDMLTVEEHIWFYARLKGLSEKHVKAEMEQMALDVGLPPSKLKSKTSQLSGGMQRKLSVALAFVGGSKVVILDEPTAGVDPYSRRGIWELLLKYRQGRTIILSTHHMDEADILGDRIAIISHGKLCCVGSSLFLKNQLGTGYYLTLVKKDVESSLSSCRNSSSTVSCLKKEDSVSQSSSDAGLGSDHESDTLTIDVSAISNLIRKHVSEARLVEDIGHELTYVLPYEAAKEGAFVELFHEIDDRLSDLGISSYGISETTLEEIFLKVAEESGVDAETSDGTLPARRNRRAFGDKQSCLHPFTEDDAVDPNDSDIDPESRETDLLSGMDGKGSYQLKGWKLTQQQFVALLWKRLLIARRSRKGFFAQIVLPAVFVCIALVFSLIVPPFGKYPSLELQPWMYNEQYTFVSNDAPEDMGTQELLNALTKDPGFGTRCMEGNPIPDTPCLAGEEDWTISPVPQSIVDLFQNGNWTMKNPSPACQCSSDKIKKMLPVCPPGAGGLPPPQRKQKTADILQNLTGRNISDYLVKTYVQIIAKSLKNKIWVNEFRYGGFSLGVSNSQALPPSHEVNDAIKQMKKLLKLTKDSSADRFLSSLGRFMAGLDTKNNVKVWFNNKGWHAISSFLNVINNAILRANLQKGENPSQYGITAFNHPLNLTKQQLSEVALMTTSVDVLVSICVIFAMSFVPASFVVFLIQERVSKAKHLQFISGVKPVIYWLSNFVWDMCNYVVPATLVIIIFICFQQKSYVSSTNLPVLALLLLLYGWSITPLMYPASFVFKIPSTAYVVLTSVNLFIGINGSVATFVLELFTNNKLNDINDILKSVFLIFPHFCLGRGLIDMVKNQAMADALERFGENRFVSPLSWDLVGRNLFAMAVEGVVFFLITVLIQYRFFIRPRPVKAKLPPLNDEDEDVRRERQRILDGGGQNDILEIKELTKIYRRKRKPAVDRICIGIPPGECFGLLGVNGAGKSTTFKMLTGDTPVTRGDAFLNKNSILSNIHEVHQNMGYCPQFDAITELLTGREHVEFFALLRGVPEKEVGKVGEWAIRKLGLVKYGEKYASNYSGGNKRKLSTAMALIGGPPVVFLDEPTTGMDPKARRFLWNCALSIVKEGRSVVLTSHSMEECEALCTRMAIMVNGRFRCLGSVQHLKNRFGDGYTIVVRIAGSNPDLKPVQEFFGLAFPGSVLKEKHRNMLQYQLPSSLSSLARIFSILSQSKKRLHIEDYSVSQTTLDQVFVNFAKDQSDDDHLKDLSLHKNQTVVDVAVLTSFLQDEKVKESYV
[3] abbreviates: 30 mg/kg IP, 6 weeks of treatment.

For “EVRSKLEEWFAAFREFAEEFLARLKS (ATI-5261 amphipathic alpha-helix polypeptide core sequence selectively binds HDL, high-affinity ligand for ATP-binding cassette transporter A1 (ABCA1), ABCA1-lipid cholesterol efflux, ABCA1-stablization, anti-oxidant and anti- inflammatory activity) [SEQ ID NO:4]”, in experiment [1] (setting [3]), the “lipid-content of aortic sinus plaque” value is “decreased the lipid-content of aortic sinus plaque” and the “plaque lesion area over the whole aorta” value is on record as “reduced plaque lesion area over the whole aorta”. Moreover, the “antiatherosclerotic effect (whole aorta and aortic root/sinus)” value in experiment [1] (30 mg/kg IP, 21 injections, pooled data of three series) was “significant antiatherosclerotic effects”. Moreover, in experiment [1] (pooled data), the “p versus control, FIG. 19A percent of lipid in plaque in whole aorta” value is listed as < 0.0040. Besides, the “cholesterol efflux efficiency/potency on per molecule (molar) basis versus apolipoproteins” value in experiment [2] (Km in molar units) is “molar potency similar to that of apolipoproteins; also recorded: activity similar to full-length Apo A-I, Apo E, and the C-terminal (CT) domain of Apo E”. Also, the “cholesterol efflux at low mass concentrations” value in experiment [2] (increasing concentrations based on mass) was “relatively high-levels of cholesterol efflux”. In experiment [2] (mass basis, over working concentration range), the “more potent than ApoA-I in stimulating cholesterol efflux” value is reported as “at least 300%”.
